Results reported in US20200407717A1, “METHODS OF MODULATING ANTISENSE ACTIVITY” (Ionis Pharmaceuticals, Inc., priority 2018, published 2020).
In the oligonucleotide strings, read from the 5' end, every base follows the letter of its sugar. An asterisk marks phosphorothioate; unmarked linkages are phosphodiester. Other units and linkages are bracketed, terminal groups are in braces. A string of capitals states the bases alone. e = 2'-O-(2-methoxyethyl) (MOE); {FITC} = fluorescein label; [5mC] = 5-methylcytosine; d = 2'-deoxy (DNA)

Legend:
[1] = molecular target: T1, Purified recombinant EGF (Homo sapiens, UniProt P01133); experiment: Membrane binding assay, EGF; settings: [EGF] 2.5 nM
T1 construct: purchased ThermoFisher PHG0311L

[2] = molecular target: T2, EGFR (Homo sapiens, UniProt P00533); experiment: Membrane binding assay, EGFR; design: purchased ThermoFisher PV3872; settings: EGFR 2.3 nM (head prints [EGF])
[3] = molecular target: T2, EGFR; experiment: Membrane binding assay, EGFR; design: purchased ThermoFisher PV3872
Method: (§1) A membrane binding assay was performed to test the binding affinities of modified oligonucleotides to EGF and EGFR. Purified recombinant EGF (PHG0311L, ThermoFisher) or EGFR protein (PV3872, ThermoFisher) were incubated with FITC-labeled phosphorothioate oligonucleotide, compound no. 256903 or FITC-labeled phosphate oligonucleotide, PO-ASO, in binding buffer (20 mM Tris-HCl, pH 7.5, 150 mM NaCl, 1 mM DTT, 10% glycerol) for 1 hr at 37° C. Each reaction contained purified EGF at 3 nM to 3 μM or recombinant EGFR at 5 nM to 150 nM. Samples were loaded onto a hyband ECL nitrocellulose membrane (GE Healthcare) and soaked in wash buffer (20 mM Tris-HcCl, pH 7.5, 250 mM NaCl). Protein-bound ASOs were transferred to the membrane by applying a vaccum in a 96-well Bio-Rad Bio-Dot apparatus. After washing, membranes were air-dried and scanned using a phoshoimager (GE Healthcare). Kds were calculated for compound no. 256903 using Prism. The results below represent an average of three replicate experiments. […] In contrast, compound no. 256903 bound to both EGF and EGFR, with a higher affinity for EGFR than for EGF.

[4] = molecular target: T1, Purified recombinant EGF; experiment: Membrane binding assay, EGF
Method: as §1

T1 sequence (P01133 971-1023 limits assumed): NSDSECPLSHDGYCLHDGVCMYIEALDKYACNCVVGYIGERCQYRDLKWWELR

## FITC-^mCesTesGes^mCesTesAdsGds^mCds^mCdsTds^mCdsTdsGdsGdsAdsTesTesTesGesAe (antisense {FITC}-e[5mC]*eT*eG*e[5mC]*eT*dA*dG*d[5mC]*d[5mC]*dT*d[5mC]*dT*dG*dG*dA*eT*eT*eT*eG*eA) [compound 256903]
[1]
  Relative intensity (%): 8.8%
[2]
  Relative intensity (%): 7.0%
[3]; EGFR 4.7 nM (head prints [EGF])
  Relative intensity (%): 9.0%
[3]; EGFR 5 nM to 150 nM
  interaction with EGFR: bound
[3]; EGFR 9.4 nM (head prints [EGF])
  Relative intensity (%): 9.0%
[3]; EGFR 18.8 nM (head prints [EGF])
  Relative intensity (%): 10.3%
[3]; EGFR 37.5 nM (head prints [EGF])
  Relative intensity (%): 40.5%
[3]; EGFR 75 nM (head prints [EGF])
  Relative intensity (%): 80.0%
[3]; EGFR 150 nM (head prints [EGF])
  Relative intensity (%): 102.7%
[3]; binding affinity for EGFR, average of three replicate experiments
  Kd: 51.5 ± 9.3 nM
[4]; EGF 3 nM to 3 μM
  interaction with EGF: bound
[4]; [EGF] 5 nM
  Relative intensity (%): 10.2%
[4]; [EGF] 10 nM
  Relative intensity (%): 12.0%
[4]; [EGF] 20.9 nM
  Relative intensity (%): 12.8%
[4]; [EGF] 41.9 nM
  Relative intensity (%): 13.7%
[4]; [EGF] 93.8 nM
  Relative intensity (%): 15.7%
[4]; [EGF] 187.5 nM
  Relative intensity (%): 17.0%
[4]; [EGF] 375 nM
  Relative intensity (%): 22.3%
[4]; [EGF] 750 nM
  Relative intensity (%): 72.3%
[4]; [EGF] 1500 nM
  Relative intensity (%): 95.2%
[4]; [EGF] 3000 nM
  Relative intensity (%): 97.3%
[4]; binding affinity for EGF, average of three replicate experiments
  Kd: 570 ± 170 nM
